13 molecules from patent US5834284A, “N-acetylglucosaminyl transferase gene coding therefor and process for production thereof” (Suntory Limited, priority 1992, dated 1998) can be followed below.

SMILES strings stand for the structures.

The target in this test is T1, GnT-V (β1,6-N-acetylglucosaminyl transferase) (Homo sapiens, UniProt Q09328).
T1 construct: 73/60 kDa
T1 sequence (Q09328 31-741): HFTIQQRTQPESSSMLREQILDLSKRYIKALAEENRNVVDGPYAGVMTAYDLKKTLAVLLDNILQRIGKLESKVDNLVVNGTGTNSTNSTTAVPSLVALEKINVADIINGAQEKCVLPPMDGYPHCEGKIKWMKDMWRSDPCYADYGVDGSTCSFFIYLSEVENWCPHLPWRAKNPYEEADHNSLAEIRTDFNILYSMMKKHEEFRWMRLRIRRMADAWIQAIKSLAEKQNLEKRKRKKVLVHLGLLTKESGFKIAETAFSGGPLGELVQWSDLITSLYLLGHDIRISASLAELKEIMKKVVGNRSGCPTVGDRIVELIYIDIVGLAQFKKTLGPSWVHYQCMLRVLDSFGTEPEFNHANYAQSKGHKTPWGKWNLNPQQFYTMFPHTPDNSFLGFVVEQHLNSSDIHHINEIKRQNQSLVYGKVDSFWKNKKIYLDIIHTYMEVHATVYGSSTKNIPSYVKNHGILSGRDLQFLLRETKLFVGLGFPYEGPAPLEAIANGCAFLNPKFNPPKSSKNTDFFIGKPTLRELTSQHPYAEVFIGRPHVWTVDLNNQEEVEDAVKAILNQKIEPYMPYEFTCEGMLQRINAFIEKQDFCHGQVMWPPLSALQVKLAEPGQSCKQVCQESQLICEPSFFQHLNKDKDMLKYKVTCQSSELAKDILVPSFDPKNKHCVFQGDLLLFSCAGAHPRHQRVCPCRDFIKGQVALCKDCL
The test can be described thus: GnT-V enzyme activity assay with fluorescence-labeled sugar acceptors, product separated by HPLC. It counts as biochemical. Particulars: for Relative reaction rate: acceptor 70 μM, purified GnT-V 0.1 mg protein/ml, GnGn-bi-PA = 100; for reactivity relative to GnGn-bi-PA acceptor taken as 100%: substrate specificity. The text has this:
An enzyme activity can be easily assayed by labeling an acceptor with a radioisotope or with fluorescent substance, adding the enzyme and separating the reaction product by high performance liquid chromatography (HPLC). More specifically, the method reported by Tanigichi et al. (Taniguchi, N., Nishikawa, A., Fujii, S., and Gu. J., Methods Enzymol. 179, 397-408 (1989); Nishikawa, H., Gu, J., Fujii, S., and Tanigichi, N., Biochem. Biophys. Acta, 1035, 313-318 (1990)) may be followed.
Namely, the enzyme activity of GnT-V can be assayed using GnGn-2-aminopyridine (GnGn-bi-PA) as an acceptor, and UDP-GluNAc (Sigma) as a donor. Activity is shown by an amount of transferred N-acetylglucosamine/hour/mg protein. Note, an amount of protein can be measured according to a reported method (Redinbaugh, M. G., and Turley, R. B., Anal. Biochem. 153, 267-271 (1986)) using a BCA kit (Pierce Chemical Company, Rockford, Ill.) and using bovine serum albumin as a standard.
Substrate specificity was determined using the following compound as sugar acceptors according to the above-mentioned enzyme activity measuring method. [drawing 1]
GnGnF--, GnGF--, GGnF--, Gn(Gn)GnF--, Gn(Gn)Gn--, GG--, GnGn--, MM-- and GnM-- were isolated from the bovine IgG treated with anhydrous hydrazine and then labeled with a fluorescence label according to Hase et al. method (Hase, S., Ibuki, T., and Ikehara, T., J. Biochem. 95, 197-203 (1984). The purified GnT-V was diluted with PBS buffer to a final concentration of 0.1 mg protein/ml, and then reacted with each fluorescence-labeled sugar acceptor. A result is shown in Table 2.

Take `CC(=O)N[C@H]1[C@H](O[C@H]2[C@@H](O)[C@@H](CO)O[C@@H](O[C@@H]([C@H](O)[C@@H](O)CNc3ccccn3)[C@H](O)CO)[C@@H]2O)O[C@H](CO)[C@@H](O)[C@@H]1O` [Lacto-N-triaose-PA, GlcNAcβ1-3Galβ1-4Glc-2-aminopyridine]: the Relative reaction rate is reported as 0.
Still for that read-out and setting: to `CC(=O)N[C@H]1[C@H](O[C@@H]([C@H](O)[C@H](CNc2ccccn2)NC(C)=O)[C@H](O)CO[C@@H]2O[C@@H](C)[C@@H](O)[C@@H](O)[C@@H]2O)O[C@H](CO)[C@@H](O[C@@H]2O[C@H](CO[C@H]3O[C@H](CO)[C@@H](O)[C@H](O)[C@@H]3O[C@@H]3O[C@H](CO)[C@@H](O)[C@H](O)[C@H]3NC(C)=O)[C@@H](O)[C@H](O[C@H]3O[C@H](CO)[C@@H](O)[C@H](O)[C@@H]3O[C@@H]3O[C@H](CO)[C@@H](O[C@@H]4O[C@H](CO)[C@H](O)[C@H](O)[C@H]4O)[C@H](O)[C@H]3NC(C)=O)[C@@H]2O)[C@@H]1O` [GnGF-bi-PA, Galβ1-4GlcNAcβ1-2Manα1-3(GlcNAcβ1-2Manα1-6)Manβ1-4GlcNAcβ1-4GlcNAc(Fucα1-6)-2-aminopyridine] belongs 3.
Regarding `[Mn+2]` [Mn^2+], the “requirement for expression of GnT-V activity” value is listed as “not necessary”.
On to `CC(=O)N[C@H]1[C@H](O[C@@H]([C@H](O)[C@H](CNc2ccccn2)NC(C)=O)[C@H](O)CO[C@@H]2O[C@@H](C)[C@@H](O)[C@@H](O)[C@@H]2O)O[C@H](CO)[C@@H](O[C@@H]2O[C@H](CO[C@H]3O[C@H](CO)[C@@H](O)[C@H](O)[C@@H]3O[C@@H]3O[C@H](CO)[C@@H](O)[C@H](O)[C@H]3NC(C)=O)[C@@H](O)[C@H](O[C@H]3O[C@H](CO)[C@@H](O)[C@H](O)[C@@H]3O[C@@H]3O[C@H](CO)[C@@H](O)[C@H](O)[C@H]3NC(C)=O)[C@@H]2O)[C@@H]1O` [GnGnF-bi-PA, GlcNAcβ1-2Manα1-3-(GlcNAcβ1-2Manα1-6)Manβ1-4GlcNAcβ1-4GlcNAc(Fucα1-6)-2-aminopyridine], for which the “reaction of the enzyme with acceptor (qualitative)” value (from here on “reaction of the enzyme”) is reported as “reacts”, the Relative reaction rate was 78 and the “reactivity relative to GnGn-bi-PA acceptor taken as 100%” value is “about 78%”.
As for `CC(=O)N[C@H]1[C@H](O[C@@H]([C@H](O)[C@H](CNc2ccccn2)NC(C)=O)[C@H](O)CO)O[C@H](CO)[C@@H](O[C@@H]2O[C@H](CO[C@H]3O[C@H](CO)[C@@H](O)[C@H](O)[C@@H]3O)[C@@H](O)[C@H](O[C@H]3O[C@H](CO)[C@@H](O)[C@H](O)[C@@H]3O)[C@@H]2O)[C@@H]1O` [MM-PA, Manα1-3Manα1-6)Manβ1-4GlcNAcβ1-4GlcNAc-2-aminopyridine], the Relative reaction rate amounted to 0.
Consider `O=C(O)CN(CCN(CC(=O)O)CC(=O)O)CC(=O)O` [EDTA], for which the “inhibition of GnT-V activity” value (in the presence of 20 mM EDTA) is “not inhibited”.
In turn, `CC(=O)N[C@H]1[C@H](O[C@H]2[C@@H](O)[C@@H](CO)O[C@@H](O[C@@H]([C@H](O)[C@@H](O)CNc3ccccn3)[C@H](O)CO)[C@@H]2O)O[C@H](CO)[C@@H](O[C@@H]2O[C@H](CO)[C@H](O)[C@H](O)[C@H]2O)[C@@H]1O` [Lacto-N-neotetraose-PA, Galβ1-4GlcNAcβ1-3Galβ1-4Glc-2-aminopyridine] returned a Relative reaction rate of 0.
As to `CC(=O)N[C@H]1[C@H](O[C@@H]([C@H](O)[C@H](CNc2ccccn2)NC(C)=O)[C@H](O)CO[C@@H]2O[C@@H](C)[C@@H](O)[C@@H](O)[C@@H]2O)O[C@H](CO)[C@@H](O[C@@H]2O[C@H](CO[C@H]3O[C@H](CO)[C@@H](O)[C@H](O)[C@@H]3O[C@@H]3O[C@H](CO)[C@@H](O[C@@H]4O[C@H](CO)[C@H](O)[C@H](O)[C@H]4O)[C@H](O)[C@H]3NC(C)=O)[C@@H](O)[C@H](O[C@H]3O[C@H](CO)[C@@H](O)[C@H](O)[C@@H]3O[C@@H]3O[C@H](CO)[C@@H](O)[C@H](O)[C@H]3NC(C)=O)[C@@H]2O)[C@@H]1O` [GGnF-bi-PA, GlcNAcβ1-2Manα1-3(Galβ1-4GlcNAc2Manα1-6)Manβ1-4GlcNAcβ1-4GlcNAc(Fucα1-6)-2-aminopyridine], the Relative reaction rate is reported as 0.2.
On to `CC(=O)N[C@H]1[C@H](O[C@@H]([C@H](O)[C@H](CNc2ccccn2)NC(C)=O)[C@H](O)CO)O[C@H](CO)[C@@H](O[C@@H]2O[C@H](CO[C@H]3O[C@H](CO)[C@@H](O)[C@H](O)[C@@H]3O[C@@H]3O[C@H](CO)[C@@H](O)[C@H](O)[C@H]3NC(C)=O)[C@@H](O)[C@H](O[C@H]3O[C@H](CO)[C@@H](O)[C@H](O)[C@@H]3O)[C@@H]2O)[C@@H]1O` [GnM-PA, Manα1-3(GlcNAcβ1-2Manα1-6)Manβ1-4GlcNAcβ1-4GlcNAc-2-aminopyridine], for which the “reaction of the enzyme” value is “reacts”, the Relative reaction rate turned out to be 66 and the “reactivity relative to GnGn-bi-PA acceptor taken as 100%” value is given as “about 66%”.
In turn, `CC(=O)N[C@H]1[C@H](O[C@@H]([C@H](O)[C@H](CNc2ccccn2)NC(C)=O)[C@H](O)CO)O[C@H](CO)[C@@H](O[C@@H]2O[C@H](CO[C@H]3O[C@H](CO)[C@@H](O)[C@H](O)[C@@H]3O[C@@H]3O[C@H](CO)[C@@H](O[C@@H]4O[C@H](CO)[C@H](O)[C@H](O)[C@H]4O)[C@H](O)[C@H]3NC(C)=O)[C@@H](O)[C@H](O[C@H]3O[C@H](CO)[C@@H](O)[C@H](O)[C@@H]3O[C@@H]3O[C@H](CO)[C@@H](O[C@@H]4O[C@H](CO)[C@H](O)[C@H](O)[C@H]4O)[C@H](O)[C@H]3NC(C)=O)[C@@H]2O)[C@@H]1O` [GG-bi-PA, Galβ1-4GlcNAcβ1-2Manα1-3(Galβ1-4GlcNAcβ1-2Manα1-6)Manβ1-4GlcNAcβ1-4GlcNAc-2-aminopyridine] displayed a Relative reaction rate of 0.
Take `CC(=O)N[C@H]1[C@H](O[C@@H]([C@H](O)[C@H](CNc2ccccn2)NC(C)=O)[C@H](O)CO)O[C@H](CO)[C@@H](O[C@@H]2O[C@H](CO[C@H]3O[C@H](CO)[C@@H](O)[C@H](O)[C@@H]3O[C@@H]3O[C@H](CO)[C@@H](O)[C@H](O)[C@H]3NC(C)=O)[C@@H](O)[C@H](O[C@H]3O[C@H](CO)[C@@H](O[C@@H]4O[C@H](CO)[C@@H](O)[C@H](O)[C@H]4NC(C)=O)[C@H](O)[C@@H]3O[C@@H]3O[C@H](CO)[C@@H](O)[C@H](O)[C@H]3NC(C)=O)[C@@H]2O)[C@@H]1O` [GnGnGn-tri-PA, GlcNAcβ1-2(GlcNAcβ1-4)Manα1-3(GlcNAcβ1-2Manα1-6)-Manβ1-4GlcNAcβ1-4GlcNAc-2-aminopyridine]: the “reaction of the enzyme” value is “reacts”, the Relative reaction rate is 125 and the “reactivity relative to GnGn-bi-PA acceptor taken as 100%” value is given as “about 125%”.
`CC(=O)N[C@H]1[C@H](O[C@@H]([C@H](O)[C@H](CNc2ccccn2)NC(C)=O)[C@H](O)CO)O[C@H](CO)[C@@H](O[C@@H]2O[C@H](CO[C@H]3O[C@H](CO)[C@@H](O)[C@H](O)[C@@H]3O[C@@H]3O[C@H](CO)[C@@H](O)[C@H](O)[C@H]3NC(C)=O)[C@@H](O[C@@H]3O[C@H](CO)[C@@H](O)[C@H](O)[C@H]3NC(C)=O)[C@H](O[C@H]3O[C@H](CO)[C@@H](O)[C@H](O)[C@@H]3O[C@@H]3O[C@H](CO)[C@@H](O)[C@H](O)[C@H]3NC(C)=O)[C@@H]2O)[C@@H]1O` [Gn(Gn)Gn-bi-PA, GlcNAcβ1-2Manα1-2Manα1-6)-Manβ1-4GlcNAcβ1-4GlcNAc-2-aminopyridine] showed a Relative reaction rate of 0.
Still for that read-out and setting: to `CC(=O)N[C@H]1[C@H](O[C@@H]([C@H](O)[C@H](CNc2ccccn2)NC(C)=O)[C@H](O)CO[C@@H]2O[C@@H](C)[C@@H](O)[C@@H](O)[C@@H]2O)O[C@H](CO)[C@@H](O[C@@H]2O[C@H](CO[C@H]3O[C@H](CO)[C@@H](O)[C@H](O)[C@@H]3O[C@@H]3O[C@H](CO)[C@@H](O)[C@H](O)[C@H]3NC(C)=O)[C@@H](O[C@@H]3O[C@H](CO)[C@@H](O)[C@H](O)[C@H]3NC(C)=O)[C@H](O[C@H]3O[C@H](CO)[C@@H](O)[C@H](O)[C@@H]3O[C@@H]3O[C@H](CO)[C@@H](O)[C@H](O)[C@H]3NC(C)=O)[C@@H]2O)[C@@H]1O` [Gn(Gn)GnF-bi-PA, GlcNAcβ1-2Manα1-2Manα1-6)-Manβ1-4GlcNAcβ1-4GlcNAc(Fucα1-6)2-aminopyridine] belongs 0.
